Results from patent US20100216847A1, “N[…] THE TREATMENT OF PAIN” (UNIVERSITY OF KENTUCKY RESEARCH FOUNDATION, priority 2006, published 2010).

Legend:
[1] = test system: rodent model of nociceptive pain (tail-flick test); assay: Tail-flick test after intraperitoneal administration; format: in vivo, rat; details: male Sprague-Dawley rats, 5 mg/kg IP single dose, perchlorate salt, vs saline, n=6; preliminary data
Experimental: A study was performed to screen the analgesic activities of S(−) and R(+) enantiomers of nornicotine following administration by intraperitoneal route (IP) in a rodent model of nociceptive pain. The responses to acute thermal stimuli were determined using the tail-flick test [D′Amour F. E., Smith D. L. “A method for determining loss of pain sensation” J Pharmacol Exp Ther (1941), 72:74-79]. Tail-flick latency (TFL) was measured by recording the time from the onset of the heat stimulus to the tail to withdrawal of the tail from the heat source, using a standard tail-flick apparatus (EMDIE, Instrument Co., Roanoke, Va.). The sensitivity of the instrument was adjusted to provide an average baseline 2-3 seconds. Cut-off time of 10 s was used to avoid tail damage.
A single dose [5 mg/kg in perch salt form (perchlorate)] of each nornicotine enantiomer was administered (IP) in 6 male rats [Sprague-Dawley; about 90 days old, 350 g, (Harlan, Indianapolis, Ind.)]. Saline (vehicle, 1 ml/kg) served as control. TFL were determined prior to (twice, 15 min apart) and at 5, 15, 30, 45 and 60 min after i.p. administration. Data were presented as time courses of TFL (normalized for pre-injection baseline, s) [FIG. 1A] and areas under the curves (AUC0-60min) [FIG. 1B].

[2] = test system: rodent model of chronic inflammatory pain (formalin test); assay: Formalin test (intra-plantar formalin) after intraperitoneal administration; format: in vivo, rat; details: male rats, 5 mg/kg IP fumarate salt, 15 min prior to formalin, n=6; for formalin-induced flinching, late (tonic) phase 20-60 min: significantly different from saline P<0.05
Experimental: A study was performed to screen the analgesic activities of S(−) and R(+) enantiomers of nornicotine following administration by intraperitoneal route (IP) in a rodent model of chronic inflammatory pain (formalin test). Intra-plantar injection of formalin produces a biphasic behavioral response consisting of flinching, lifting and licking behaviors in rodents. The first phase (acute, 0-20 min) results from direct stimulation of nociceptors (nociceptive pain) whereas the second phase (tonic, 20-60 min) involves central sensitization (a characteristic of neuropathic pain). Accordingly, the formalin test was used to determine the analgesic effects of S(−)- and R(+)-nornicotine [Wheeler-Aceto H., Covan A. “Standardization of the rat formalin test for the evaluation of analgesics” Psychopharmacology (1991) 104:35-44]. Formalin (50 mcl) was injected subcutaneously (SC) into the dorsal surface of the hind paw. The rat was placed in a Plexiglas cage and the intensity of pain (number of formalin-induced flinches) was rated in 5 min intervals for 60 min.
A single dose [5 mg/kg in salt form (fumarate)] of each nornicotine enantiomer and saline (control) was administered (IP) 15 min prior to formalin (SC) injection in 6 male rats. Data were presented as time courses of formalin-induced flinches (number) for S(−)-nornicotine, R(+)-nornicotine and saline [FIG. 4A] and areas under the curves (AUC) calculated for phase 1 (acute, 0-20 min) [FIG. 4B] and phase 2 (tonic, 20-60 min) [FIG. 4C].

[3] = test system: rodent model of nociceptive pain (tail-flick test); assay: Tail-flick test after intrathecal administration; format: in vivo, rat; details: male rats, 10 mcg IT single dose, perchlorate salt, n=5, P<0.05 post-hoc SNK
Experimental: A study was performed to screen the analgesic activities of S(−) and R(+) enantiomers of nornicotine following administration by intrathecal route (IT) in a rodent model of nociceptive pain (tail-flick test).
In order to inject these drugs via the IT route chronic catheterization of the spinal subarachnoid space was performed in rats [Yaksh T., Rudy T. “Chronic catheterization of the spinal subarachnoid space” Physiol Behav (1976) 17:1031-1036 (with minor modification)]. Briefly, a 21 cm long P-10 polyethylene tubing (volume 10 mcl) which extended 8.5 cm beyond an incision in the atlanto-occipital membrane was secured to the scull with acrylic cement. The catheter rested in the vicinity of T-12 at the rostral face of the lumbar cord enlargement. The studies were initiated 1 week after implantation of the IT catheter.
A single dose [10 mcg in perch salt form (perchlorate)] of each enantiomer was administered (IT) in 5 male rats. Saline (vehicle; 10 mcl) was used as control. The responses to acute thermal stimuli were determined using the tail-flick test (baseline 2-3 seconds, cut-off 10 seconds). TFL were measured prior to (twice, 15 min apart) and at 5, 10, 15, 30, 45 and 60 min after IT administration. Data were presented as time courses of TFL (normalized for pre-injection baseline, s) [FIG. 2A] and areas under the curves (AUC0-60min) [FIG. 2B].

[4] = test system: rodent model of nociceptive pain (paw withdrawal test); assay: Thermal paw withdrawal test after intraperitoneal administration; format: in vivo, rat; details: male rats, 2.5, 5 and 10 mg/kg IP, free base, n=8; P<0.05 1-way ANOVA
Experimental: To further characterize the analgesic properties of S(−)nornicotine, a dose-response relationship was determined. Responsiveness to acute thermal noxious stimuli was assessed by a thermal paw withdrawal test [Hargreaves K. et al., “A new sensitive method for measuring thermal nociception in cutaneous hyperalgesia” Pain (1988) 32:77-88]. This test, which uses a ramp heat stimulus on the plantar surface of the paw, appears to generate more consistent analgesic responses to nicotinic drugs as compared to tail flick test. Plantar Stimulator Analgesia Meter (11TC, Life Science, Woodland Hills, Calif.) was used. Briefly, the rat was placed in a clear plastic chamber and allowed to acclimate for 5 min. After the acclimation period, the radiant heat was positioned under the glass floor directly beneath the plantar hind paw. The heat source activated a timer that was controlled by a photocell. The hind paw withdrawal interrupted the photocell and automatically stopped the timer. Latency to paw withdrawal (PWL) was measured to the nearest 0.1 s. […]
S(−)-Nornicotine was administered in three doses (2.5, 5 and 10 mg/kg in form of free base) via the IP route in 8 male rats. […] Responses (PWL, s) were measured prior to and at 5, 10, 15, 30, and 60 min after IP injection. For each rat and at each time point, response was normalized for baseline measured on the day of experiment. […]

[5] = humans; cited from earlier work
[6] = following peripheral administration of nicotine; cited from earlier work
[7] = in vivo; cited from earlier work
[8] = following repeated nicotine dosing; cited from earlier work

Molecule	analgesic effect (tail-flick latency, AUC0-60min) [1]	formalin-induced flinching, early (acute) phase 0-20 min [2]	formalin-induced flinching, late (tonic) phase 20-60 min [2]	analgesic effect (tail-flick latency, AUC0-60min) vs the other enantiomer [3]	analgesic effect (tail-flick latency, AUC0-60min) vs saline ([3]; preliminary data)	analgesic effect (paw withdrawal latency, AUC0-60min vs log dose) [4]	potency and toxicity profile compared to R(+)-nornicotine (Dose escalation studies)	plasma half-life [5]	residence in the rat's brain [6]	oral bioavailability [7]	accumulation in brain compared to nicotine [8]	oral bioavailability (in words) [7]
c1cncc([C@H]2CCCN2)c1 [R(+)-nornicotine]	less pronounced	Neither enantiomer had significant effect	attenuated formalin-induced flinching	–	–	–	–	–	–	–	–	–
c1cncc([C@@H]2CCCN2)c1 [S(−)-nornicotine]	significantly greater as compared to saline	Neither enantiomer had significant effect	attenuated formalin-induced flinching	significantly greater as compared to R(+)-nornicotine	significantly greater as compared to saline	significantly related to dose	more favorable potency and toxicity profile	–	–	–	–	–
CN1CCCC1c1cccnc1 (centres unmarked) [nicotine, reference compound]	–	–	–	–	–	–	–	1 h	52 min	10%	–	–
Nornicotine	–	–	–	–	–	–	–	8 h	166 min	–	about 4 fold	good oral bioavailability
